Test results: patent US8293731B2, “HIV integrase inhibitors” (Merck Sharp + Dohme Corp., priority 2005, dated 2012)

Test system: HIV
Experiment: Assay for inhibition of HIV replication (spread assay): acute HIV infection of T-lymphoid cells
Type: cell-based
Details: Human immunodeficiency virus 1, 'less than about'
Procedure: Assays for the inhibition of acute HIV infection of T-lymphoid cells were conducted in accordance with Vacca, J. P. et al., Proc. Natl. Acad. Set USA 1994, 91: 4096. […] For example, the compounds of Examples 1 to 64 were tested in this assay and found to have IC95 values of less than about 10 micromolar.

Row | SMILES | IC95
1 | CN1CC(O)C(C)(C)Cn2c(c3c(c(O)c2=O)C(=O)N(Cc2ccc(F)c(Cl)c2)CC3)C1=O (racemic) [Example 38, (4R/S)-11-(3-Chloro-4-fluorobenzyl)-4,9-dihydroxy-2,5,5-trimethyl-3,4,5,6,12,13-hexahydro-2H[1,4]diazocino[2,1-a]-2,6-naphthyridine-1,8,10(11H)-trione] | < 10 µM
2 | CN1CC(O)C(C)(C)Cn2c(c3c(c(O)c2=O)C(=O)N(Cc2ccc(F)c(Cl)c2)CC3)C1=O (racemic) [Example 40, (4R/S)-11-(3-Chloro-4-fluorobenzyl)-4,9-dihydroxy-2,5,5-trimethyl-3,4,5,6,12,13-hexahydro-2H[1,4]diazocino[2,1-a]-2,6-naphthyridine-1,8,10(11H)-trione] | < 10 µM
3 | CN1CC(O)C(C)(C)Cn2c(c3c(c(O)c2=O)C(=O)N(Cc2ccc(F)cc2)CC3)C1=O (racemic) [Example 42, (4R/S)-11-(4-Fluorobenzyl)-4,9-dihydroxy-2,5,5-trimethyl-3,4,5,6,12,13-hexahydro-2H[1,4]diazocino[2,1-a]-2,6-naphthyridine-1,8,10(11H)-trione] | < 10 µM
4 | CN1CC(O)CCn2c(c3c(c(O)c2=O)C(=O)N(Cc2ccc(F)c(Cl)c2)CC3)C1=O (single isomer, unassigned) [Example 23, 11-(3-Chloro-4-fluorobenzyl)-4,9-dihydroxy-2-methyl-3,4,5,6,12,13-hexahydro-2H[1,4]diazocino[2,1-a]-2,6-naphthyridine-1,8,10(11H)-trione] | < 10 µM
5 | CN1CCCCn2c(c3c(c(O)c2=O)C(=O)N(Cc2ccc(F)c(Cl)c2)CC3)C1=O [Example 1, 11-(3-Chloro-4-fluorobenzyl)-9-hydroxy-2-methyl-3,4,5,6,12,13-hexahydro-2H[1,4]diazocino[2,1-a]-2,6-naphthyridine-1,8,10(11H)-trione] | < 10 µM
6 | CN1CCCCn2c(c3c(c(O)c2=O)C(=O)N(Cc2ccc(F)cc2)CC3)C1=O [Example 2, 11-(4-Fluorobenzyl)-9-hydroxy-2-methyl-3,4,5,6,12,13-hexahydro-2H[1,4]diazocino[2,1-a]-2,6-naphthyridine-1,8,10(11H)-trione] | < 10 µM
7 | CN1CCCn2c(c3c(c(O)c2=O)C(=O)N(Cc2ccc(F)c(Cl)c2)CC3)C1=O [Example 3, 10-(3-Chloro-4-fluorobenzyl)-8-hydroxy-2-methyl-2,3,4,5,11,12-hexahydro[1,4]diazepino[2,1-a]-2,6-naphthyridine-1,7,9(10H)-trione] | < 10 µM
8 | O=C1NCCCn2c1c1c(c(O)c2=O)C(=O)N(Cc2ccc(F)c(Cl)c2)CC1 [Example 4, 10-(3-Chloro-4-fluorobenzyl)-8-hydroxy-2,3,4,5,11,12-hexahydro[1,4]diazepino[2,1-a]-2,6-naphthyridine-1,7,9(10H)-trione] | < 10 µM
9 | O=C1NCCn2c1c1c(c(O)c2=O)C(=O)N(Cc2ccc(F)c(Cl)c2)CC1 [Example 5, 9-(3-Chloro-4-fluorobenzyl)-7-hydroxy-3,4,10,11-tetrahydro-2H-pyrazino[2,1-a]-2,6-naphthyridine-1,6,8(9H)-trione] | < 10 µM
10 | CN1CCn2c(c3c(c(O)c2=O)C(=O)N(Cc2ccc(F)c(Cl)c2)CC3)C1=O [Example 6, 9-(3-Chloro-4-fluorobenzyl)-7-hydroxy-2-methyl-3,4,10,11-tetrahydro-2H-pyrazino[2,1-a]-2,6-naphthyridine-1,6,8(9H)-trione] | < 10 µM
11 | O=C1OCCn2c1c1c(c(O)c2=O)C(=O)N(Cc2ccc(F)c(Cl)c2)CC1 [Example 7, 9-(3-Chloro-4-fluorobenzyl)-7-hydroxy-3,4,10,11-tetrahydro[1,4]oxazino[3,4-a]-2,6-naphthyridine-1,6,8(9H)-trione] | < 10 µM
12 | CC1C(=O)N(C)c2c3c(c(O)c(=O)n21)C(=O)N(Cc1ccc(F)c(Cl)c1)CC3 (stereo not shown) [Example 8, 8-(3-Chloro-4-fluorobenzyl)-6-hydroxy-1,3-dimethyl-1,8,9,10-tetrahydroimidazo[2,1-a]-2,6-naphthyridine-2,5,7(3H)-trione] | < 10 µM
13 | CN1C(=O)C(C)(C)n2c1c1c(c(O)c2=O)C(=O)N(Cc2ccc(F)c(Cl)c2)CC1 [Example 9, 8-(3-Chloro-4-fluorobenzyl)-6-hydroxy-1,3,3-trimethyl-1,8,9,10-tetrahydroimidazo[2,1a]-2,6-naphthyridine-2,5,7(3H)-trione] | < 10 µM
14 | CC(=O)OCCN1CCCCn2c(c3c(c(O)c2=O)C(=O)N(Cc2ccc(F)c(Cl)c2)CC3)C1=O [Example 10, 11-(3-Chloro-4-fluorobenzyl)-9-hydroxy-2-[2-(acetyloxy)ethyl]-3,4,5,6,12,13-hexahydro-2H[1,4]diazocino[2,1-a]-2,6-naphthyridine-1,8,10(11H)-trione] | < 10 µM
15 | O=C1c2c(c3n(c(=O)c2O)CCCCN(CCO)C3=O)CCN1Cc1ccc(F)c(Cl)c1 [Example 11, 11-(3-Chloro-4-fluorobenzyl)-9-hydroxy-2-(2-hydroxyethyl)-3,4,5,6,12,13-hexahydro-2H[1,4]diazocino[2,1-a]-2,6-naphthyridine-1,8,10(11H)-trione] | < 10 µM
16 | O=C(O)CN1CCCCn2c(c3c(c(O)c2=O)C(=O)N(Cc2ccc(F)c(Cl)c2)CC3)C1=O [Example 12, [11-(3-Chloro-4-fluorobenzyl)-9-hydroxy-1,8,10-trioxo-1,3,4,5,6,8,10,11,12,13-deca-hydro-2H-[1,4]diazocino[2,1-a]-2,6-naphthyridin-2-yl]acetic acid] | < 10 µM
17 | CN(C)C(=O)CN1CCCCn2c(c3c(c(O)c2=O)C(=O)N(Cc2ccc(F)c(Cl)c2)CC3)C1=O [Example 13, 2-[11-(3-Chloro-4-fluorobenzyl)-9-hydroxy-1,8,10-trioxo-1,3,4,5,6,8,10,11,12,13-deca-hydro-2H-[1,4]diazocino[2,1-a]-2,6-naphthyridin-2-yl]-N,N-dimethylacetamide] | < 10 µM
18 | CNC(=O)CN1CCCCn2c(c3c(c(O)c2=O)C(=O)N(Cc2ccc(F)c(Cl)c2)CC3)C1=O [Example 14, 2-[11-(3-Chloro-4-fluorobenzyl)-9-hydroxy-1,8,10-trioxo-1,3,4,5,6,8,10,11,12,13-deca-hydro-2H-[1,4]diazocino[2,1-a]-2,6-naphthyridin-2-yl]-N-methylacetamide] | < 10 µM
19 | NC(=O)CN1CCCCn2c(c3c(c(O)c2=O)C(=O)N(Cc2ccc(F)c(Cl)c2)CC3)C1=O [Example 15, 2-[11-(3-Chloro-4-fluorobenzyl)-9-hydroxy-1,8,10-trioxo-1,3,4,5,6,8,10,11,12,13-deca-hydro-2H-[1,4]diazocino[2,1-a]-2,6-naphthyridin-2-yl]acetamide] | < 10 µM
20 | O=C1c2c(c3n(c(=O)c2O)CCCCN(CCN2CCOCC2)C3=O)CCN1Cc1ccc(F)c(Cl)c1 [Example 16, 11-(3-Chloro-4-fluorobenzyl)-9-hydroxy-2-(2-morpholin-4-ylethyl)-3,4,5,6,12,13-hexahydro-2H[1,4]diazocino[2,1a]-2,6-naphthyridine-1,8,10(11H)-trione] | < 10 µM
21 | O=C1c2c(c3n(c(=O)c2O)CCCCN(CCN2CCCC2)C3=O)CCN1Cc1ccc(F)c(Cl)c1 [Example 17, 11-(3-Chloro-4-fluorobenzyl)-9-hydroxy-2-(2-pyrrolidinyl-1-ylethyl)-3,4,5,6,12,13-hexahydro-2H[1,4]diazocino[2,1-a]-2,6-naphthyridine-1,8,10(11H)-trione] | < 10 µM
22 | O=C1c2c(c3n(c(=O)c2O)CCCCN(CCN2CCCCC2)C3=O)CCN1Cc1ccc(F)c(Cl)c1 [Example 18, 11-(3-Chloro-4-fluorobenzyl)-9-hydroxy-2-(2-piperidinyl-1-ylethyl)-3,4,5,6,12,13-hexahydro-2H[1,4]diazocino[2,1-a]-2,6-naphthyridine-1,8,10(11H)-trione] | < 10 µM
23 | NCCN1CCCCn2c(c3c(c(O)c2=O)C(=O)N(Cc2ccc(F)c(Cl)c2)CC3)C1=O [Example 19, 11-(3-Chloro-4-fluorobenzyl)-9-hydroxy-2-(2-aminoethyl)-3,4,5,6,12,13-hexahydro-2H[1,4]diazocino[2,1-a]-2,6-naphthyridine-1,8,10(11H)-trione] | < 10 µM
24 | CC(=O)NCCN1CCCCn2c(c3c(c(O)c2=O)C(=O)N(Cc2ccc(F)c(Cl)c2)CC3)C1=O [Example 20, 11-(3-Chloro-4-fluorobenzyl)-9-hydroxy-2-[2-(acetylamino)ethyl]-3,4,5,6,12,13-hexahydro-2H[1,4]diazocino[2,1-a]-2,6-naphthyridine-1,8,10(11H)-trione] | < 10 µM
25 | CS(=O)(=O)NCCN1CCCCn2c(c3c(c(O)c2=O)C(=O)N(Cc2ccc(F)c(Cl)c2)CC3)C1=O [Example 21, 11-(3-Chloro-4-fluorobenzyl)-9-hydroxy-2-[2-(methamesulfonylamino)ethyl]-3,4,5,6,12,13-hexahydro-2H[1,4]diazocino[2,1-a]-2,6-naphthyridine-1,8,10(11H)-trione] | < 10 µM
26 | COCCN1CCCCn2c(c3c(c(O)c2=O)C(=O)N(Cc2ccc(F)c(Cl)c2)CC3)C1=O [Example 22, 11-(3-Chloro-4-fluorobenzyl)-9-hydroxy-2-[2-(methoxy)ethyl]-3,4,5,6,12,13-hexahydro-2H[1,4]diazocino[2,1-a]-2,6-naphthyridine-1,8,10(11H)-trione] | < 10 µM
27 | CN1CC(=O)CCn2c(c3c(c(O)c2=O)C(=O)N(Cc2ccc(F)c(Cl)c2)CC3)C1=O [Example 25, 11-(3-Chloro-4-fluorobenzyl)-9-hydroxy-2-methyl-5,6,12,13-tetrahydro-2H[1,4]diazocino[2,1-a]-2,6-naphthyridine-1,4,8,10(3H, 11H)-tetrone] | < 10 µM
28 | CN1CC(N2CCCC2)CCn2c(c3c(c(O)c2=O)C(=O)N(Cc2ccc(F)c(Cl)c2)CC3)C1=O (stereo not shown) [Example 26, 11-(3-Chloro-4-fluorobenzyl)-9-hydroxy-2-methyl-4-pyrrolidin-1-yl-3,4,5,6,12,13-hexahydro-2H[1,4]diazocmo[2,1-a]-2,6-naphthyridine-1,8,10(11H)-trione] | < 10 µM
